From publication PMC11770821, “Pharmacokinetics and pharmacodynamics of an innovative psychedelic N,N-dimethyltryptamine/harmine formulation in healthy participants: a randomized controlled trial” (International Journal of Neuropsychopharmacology, 2025)

Assays:
clinical = conditions: male, human, plasma, other: intranasal (DMT), buccal (harmine)
Procedure: (§1) The study was conducted as a within-subject, double-blind, randomized placebo-controlled trial. Randomization was performed by an independent individual using a computer-generated random number sequence. All participants underwent 3 randomized drug treatments on separate study days, with an intervening washout period of at least 2 weeks: (1) DMT/HAR: harmine hydrochloride (HCl; 100 mg; buccal orodispersible tablet; ODT) plus DMT (as hemifumarate; 100 mg; intranasal: 10 mg every 15 minutes over 150 minutes), (2) HAR/PLA: harmine (100 mg, buccal ODT) plus placebo nasal spray (NaCl; at same dosing intervals), and (3) PLA/PLA: placebo buccal ODT plus placebo nasal spray. In all conditions, buccal tablets were premedicated for 30 minutes. Food or water intake was not allowed 2 hours before drug administration.
(§2) Thirty minutes following buccal premedication with harmine HCl (100 mg) or placebo, the intranasal repeated-intermittent administration of DMT or placebo was initiated. Volunteers received up to 100 mg DMT in 10 mg dosing steps each 15 minutes (2 × 2 puffs per nostril) over a period of 150 minutes (except for a 30-minute break between 60 and 90 minutes due to a behavioral task). […] Volunteers could adjust each dose (0, 5, 10 mg) based on tolerance, with encouragement to follow the regimen if no adverse effects (AEs) occurred. Thus, volunteers were given the chance to control the psychedelic strength of the experience to enhance safety and tolerability.
(§3) Blood samples were collected from the left or right antecubital vein at −30 (baseline), 0, 30, 60, 90, 120, 150, 180, 195, 210, 240, 270, and 300 minutes after first DMT/placebo administration for analysis of blood plasma levels of harmine, DMT, the 3 major DMT metabolites 3-IAA, DMT-N-oxide, and NMT and the major harmine metabolite harmol. While DMT administration was ongoing, blood drawing was always performed right before DMT administration (time point -1 minute). The venous catheter was connected to a 100 mm Heidelberger plastic tube extension to collect blood samples without disturbing the volunteers during their psychedelic experience. The intravenous line was kept patent with a slow drip (10 mL/h) of heparinized saline (1000 IU heparin in 0.9 g NaCl/dL; HEPARIN Bichsel; Bichsel AG). Blood samples were immediately centrifuged for 10 minutes at 2000 RCF. Then, plasma was transferred to Eppendorf tubes, shock-frosted in liquid nitrogen (~ −196 °C) and stored at −80 °C until assay.
(§4) The data were analyzed and visualized with R Studio version 2021.09.2 + 382.[36] PK-PD parameters were computed using the R-package PKNCA.[37] For Cmax, tmax, AUCs (area under the curves), and half-life calculations, non-compartmental analyses were performed.[38] […] Post hoc pairwise comparisons were calculated using paired Wilcoxon signed-rank tests. P-values were adjusted using the Benjamini-Hochberg multiple testing correction method. Pearson or Spearman correlations were performed (as appropriate according to Shapiro-Wilk tests) to analyze associations between DMT plasma levels and subjective effects.
(§5) For the sample preparation 200 µl of plasma were spiked with 50 µl internal standard (IS) mixture (40 ng/ml DMT-d6 and harmine-d3) and 50 µl methanol (MeOH). Proteins were precipitated by adding 400 µl of acetonitrile (ACN). The samples were shaken for 10 minutes and centrifuged for 5 min at 10‘000 rpm. 350 µl of the supernatant was transferred into an auto-sampler vial, evaporated to dryness under a gentle stream of nitrogen at room temperature and reconstituted in 100 µl eluent-mixture (98:2, v/v).

[1] = Plasma pharmacokinetics of DMT, harmine and their metabolites (non-compartmental analysis)
Procedure: as §1, §2, §3, §4, §5

healthy male volunteers = test: Acute subjective drug effects, visual analog scales (VAS 0–100); assay type: in vivo, human
Procedure: The detailed dosing scheme is depicted in Figure 1.
The intensity of acute subjective effects was monitored with visual analog scales (VASs, range 0–100) on a touchscreen tablet throughout the study day at baseline (−90), 0, 30, 60, 90, 120, 180, 240, and 300 after the first DMT/placebo administration. At 360 minutes after the first DMT/placebo administration, a phenomenological interview was conducted with participants to further explore acute subjective drug effects. For PK-PD analyses, we included VAS for intensity, liking, disliking, and arousal in the present paper. Further analyses on a set of neurophysiological, psychometric, and phenomenological assessments will be presented in forthcoming manuscripts.

O=C(O)Cc1c[nH]c2ccccc12 [3-IAA, indole-3-acetic acid]
AUC (clinical): 7580 ng·h/mL
Cmax (clinical): 2910 ng/mL
Tmax (clinical): 4.1 h
plasma levels after harmine administration ([1]; harmine-only (HAR) condition): decreased

CN(C)CCc1c[nH]c2ccccc12 [DMT, N,N-dimethyltryptamine]
correlation (r) between subjective intensity ratings and DMT plasma levels (healthy male volunteers; DMT + harmine condition, 95% CI 0.51-0.66): 0.59
duration of psychedelic effects / overall drug action (healthy male volunteers; DMT + harmine, after first DMT administration): ≤ 240 min
duration of acute drug (psychedelic) effects (healthy male volunteers; DMT co-administered with harmine): 2 to 3 h
time blood plasma levels remained constant after the last intranasal DMT dose ([1]; DMT + harmine condition): 30 min
half-life ([1]; male, human, plasma, other: intranasal): 0.6 h
